US20170000784A1, “Autophagy Inhibitors” (priority 2013, published 2017)
pIC50: −log10 of the molar value. ≈ marks a conversion by molar mass, not a printed value.

Assays:
L6 cells = assay: In vitro cytotoxicity (LD50), Alamar Blue; assay type: cell-based; settings: Rattus norvegicus, L6, read-out: L6 IC50
Protocol: L6 cells were seeded at 4×10^4 cells per well in a 96-well microtiter plate with each well containing 100 μL of RPMI 1640 medium, supplemented with 1% L-glutamine (200 mM), and 10% fetal bovine serum. Serial drug dilutions of Example 7 and Example 27 with seven 3-fold dilution steps, covering a range from 90 to 0.12 μg/mL, were prepared. After 72 h of incubation, the plates were inspected under an inverted microscope to ensure growth of the controls and sterile conditions. Alamar Blue (10 μL, 12.5 mg of resazurin dissolved in 100 mL of double-distilled water) was then added to each well, and the plates were incubated for another 2 hours. Plates were read with a microplate fluorometer using an excitation wavelength of 536 nm and an emission wavelength of 588 nm. Data were analyzed using microplate reader software. Podophyllotoxin was used as a standard (L6 IC50=0.04 μg/mL).
Next, the inventors wanted to determine if there is a therapeutic window for Example 7 and Example 27 in the treatment of P. falciparum. A therapeutic window for P. falciparum treatment is defined as a 10-fold differential between the in vitro cytotoxicity (LD50) within a mammalian cell line and the antimalarial IC50 (LD50/IC50) as defined by the MMV. Using the rat skeletal muscle L6 mammalian cell line, dose-response curves for Example 7 and Example 27 were performed and the LD50 determined.

[1] = test system: PLX-4032 resistant melanoma cell lines UACC1093 and UACC647; assay: Combination interaction tumor cell viability (ATP luminescence, 72 hours); assay type: cell-based
Protocol: (§1) Tumor cell lines (H292, HCT116, A375, HCC1569, A498, N87, UACC1093, and UACC647) were cultured in RPMI 1640 supplemented with 5% fetal bovine serum and housed in a 5% CO2 Incubator at 37° C.
(§2) For combination interaction experiments, cells were plated on a 96 well microplate and allowed 24 hours to adhere. Drugs were administered to the drug plate by the following: compound stock solutions (20 mM) or combination agent stock solutions (20 mM) were added to a drug plate where a 1:10 dilution was performed. Following the dilutions, 2 μl of each VT-062 and standard agent was transferred to the corresponding wells in the cell-containing 96-well plate with 196 μl of growth media. The compound and combination agent was concurrently tested over a range of 0.1 pM-100 μM for 72 hours. Following 72 hours of continuous exposure cell viability was determined by measuring the ATP activity using a commercially available cell viability assay kit. Luminescence intensity was used to relative drug activity compared to control wells and used to graphically determine the IC50 of combination.

[2] = test system: A375 Human melanoma tumor cells; assay: Human tumor xenograft study; assay type: in vivo; settings: A375 xenograft in female mice; orally, daily for 21 days; after 25 days
Protocol: Female mice were inoculated subcutaneously in the right flank with 0.1 ml of a 50% RPMI/50% Matrigel™ (BD Biosciences, Bedford, Mass.) mixture containing a suspension of A375 Human melanoma tumor cells (approximately 5×10^6 cells/mouse).
When tumor reached approximately 130 mg, mice were randomized into treatment groups. Body weights were recorded when the mice were randomized and were taken twice per week (on Study Days 3 and 7 for each cycle) thereafter in conjunction with tumor measurements. Treatment began on the day of randomization. Example 10 was delivered orally in a vehicle consisting of 5% DMA, 10% propylene glycol, 20% PEG 400, and 65% sterile water. Example 10 was administered daily for 21 days.

[3] = test system: Tumor cell lines (H292, HCT116, A375, HCC1569, A498, N87, UACC1093, and UACC647); assay: Single agent tumor cell viability (ATP luminescence, 72 hours); assay type: cell-based; settings: cell lines tested; 72 hours exposure; FIGS. 1A, 1B
Protocol: as §1
as §2, with “single agent IC50 determination,” for “combination interaction experiments,”, “(10” for “(20 mM) or combination agent stock solutions (20”, “test compound” for “each VT-062 and standard agent”, “198” for “196”, “compounds were” for “compound and combination agent was concurrently”, “IC50.” for “IC50 of combination.”

[4] = test system: metastatic melanoma with BRAF V600E mutation; settings: metastatic melanoma patients with the mutation; in one study; cited from earlier work
[5] = test system: UACC-502 melanoma cell line; assay: Cell viability (IC50) screen, CellTiter Glo, UACC-502; assay type: cell-based; settings: Homo sapiens; UACC-502 cell viability, CellTiter Glo; read-out: IC50
Protocol: (§3) U2OS cells were seeded at 500 cells per well in 5A McCoy's with 10% FBS in 96-well clear bottom, black-walled tissue culture plates. All melanoma cell lines (A375, UACC-91, UACC-257, UACC-502, UACC-903, UACC-1308, UACC-1940, UACC-2534, and UACC-3291) were seeded at 5,000 cells per well in RPMI 1640 with 10% FBS in 96-well clear bottom, black-walled tissue culture plates. After 24 hour incubation, cells were treated with VATG compounds in triplicate with a 10-point half log dose response from […] for 24 and 48 hours. Medium was removed and 2× CellTiter Glo (Promega, G7571) reagent mixed 1:1 with Opti-MEM (Invitrogen, 31985062) was added at 100 μL per well and incubated at room temperature for 15 minutes while rocking. 75 μL per well was moved to a white-walled 96-well plate and luminescence quantified using the 96 LUM program on an EnVision plate reader (PerkinElmer) and exported for analysis. All triplicate data points were averaged and luminescent readings for each treatment were normalized to vehicle control for change in viability. Dose response curves were input into SigmaPlot for IC50 calculations (Systat Software Inc).

[6] = test system: UACC-257 melanoma cell line; assay: Cell viability (IC50) screen, CellTiter Glo, UACC-257; assay type: cell-based; settings: Homo sapiens; UACC-257 cell viability, CellTiter Glo; read-out: IC50
Protocol: as §3

[7] = test system: phospho-ERK1/2 and LC3-II in A375 cells; assay: Western blot of A375 cells treated with PLX-4032 with and without autophagy inhibitors; assay type: cell-based, human
Protocol: For Western blotting, U2OS cells were seeded in 10 cm plates in 5A McCoy's with 10% FBS at 1×10^6 cells per plate. All melanoma lines were seeded in 10 cm plates in RPMI 1640 with 10% FBS at 1×10^6 cells per plate. After 24 hours, cells were treated with CQ, QN, Example 27, or Example 7 in a dose response of 0.3 μM, 1 μM, 3 μM, 10 μM, and 30 μM for three hours. A375 were treated with PLX-4032 (Selleck Chemicals, S1267) at 10 nM, 100 nM, and 1 μM for three hours with and without CQ, QN, Example 7, and Example 27 at 3 μM and 30 μM. After treatment, cells were lysed [10 mM KPO4, 1 mM EDTA, 10 mM MgCl2, 5 mM EGTA, 50 mM bis-glycerophosphate, 0.5% NP40, 0.1% Brij35, 0.1% sodium deoxycholate, 1 mM NaVO4, 5 mM NaF, 2 mM DTT, and complete protease inhibitors (Sigma, P8340-5 mL)] and 50 μg of protein was resolved by SDS-PAGE. Proteins were transferred to PVDF membranes and probed with primary antibodies [LC3 (Sigma, L7543-200UL), anti-α-tubulin (Sigma, T6199), cathepsin B (Santa Cruz, sc-13985)] for 16 hours at 4° C. followed by a secondary antibody [HRP-linked rabbit or mouse IgG (GE Healthcare, NA934 or NA931) or Odyssey IRDye 680CW Goat anti-rabbit IgG (LI-COR, 926-32221) or IRDye 800CW Goat anti-mouse IgG (LI-COR, 926-32210)] for 1 hour at room temperature. Proteins were detected with enhanced chemiluminescence or using the Odyssey machine and quantified (FIGS. 12, 15, 16, 7 and 11).
Since the melanoma cell lines are capable of undergoing autophagy and sensitive to autophagy inhibition, the inventors questioned whether autophagy inhibitors could improve the efficacy of, or sensitize melanoma cells against cytotoxic and chemotherapeutic drugs for advanced metastatic melanoma. In one example, PLX-4032 drug “vemurafenib” (marketed as ZELBORAF®) is a B-Raf enzyme inhibitor developed by Plexxikon and Genentech for the treatment of late-stage melanoma. The name “vemurafenib” comes from V600E mutated BRAF inhibition. PLX-4032, selectively targets the V600E mutant BRAF and it is unknown how this drug may affect autophagic flux. To determine the effects of the drug on autophagic flux, the present inventors performed experiments to determine whether PLX-4032 induces autophagy, as has been observed with other targeted agents. In some embodiments, the accumulation of LC3-II in response to lysosome inhibition was measured by quantitative Western blotting, as described above. A375 cells were treated with PLX-4032 (10 nM, 100 nM, and 1 μM) for three hours in the presence or absence of CQ.

[8] = test system: UACC-3291 melanoma cell line; assay: Cell viability (IC50) screen, CellTiter Glo, UACC-3291; assay type: cell-based; settings: Homo sapiens; UACC-3291 cell viability, CellTiter Glo; read-out: IC50
Protocol: as §3

A375 melanoma cell line = assay: Cell viability (IC50) screen, CellTiter Glo, A375; assay type: cell-based; settings: Homo sapiens, A-375; A375 cell viability, CellTiter Glo, 48 hours; read-out: IC50
Protocol: as §3

A375 cells = assay type: cell-based, human; settings: A375 soft agar
Source text: After three weeks of treatment, cells were fixed and stained in 1% paraformaldehyde in 1×PBS containing 0.005% crystal violet overnight. Cells were destained with multiple washes of 1×PBS to remove background staining. Plates were scanned and images quantified using Nikon NIS Elements software. To quantify, each image was sharpened and an ROI of equal size drawn around each well. Intensity thresholds were set to include all pixels equal to or greater than the intensity of the mean background fluorescence. Objects within the threshold of each ROI were quantified using an automated object count function and exported for analysis. Object number was quantified to denote total colony formation. […] Additivity was established when the expected viability determined by the Bliss independence model was equal to the actual viability. This model was chosen since the effects of both compounds are mutually non-exclusive and follow first order Michaelis-Menten kinetics.
To determine if the effects of each combination were more than, less than, or equal to additive, predictions for additivity were made using the Bliss Independence (Table 7), as disclosed in Yan H, Zhang B, Li S, Zhao Q. A formal model for analyzing drug combination effects and its application in TNF-alpha-induced NFkappaB pathway. BMC Syst. […] Drug combination studies and their synergy quantification using the Chou-Talalay method.

[9] = test system: UACC-91 melanoma cell line; assay: Cell viability (IC50) screen, CellTiter Glo, UACC-91; assay type: cell-based; settings: Homo sapiens; UACC-91 cell viability, CellTiter Glo; read-out: IC50
Protocol: as §3

[10] = test system: UACC-1308 melanoma cell line; assay: Cell viability (IC50) screen, CellTiter Glo, UACC-1308; assay type: cell-based; settings: Homo sapiens; UACC-1308 cell viability, CellTiter Glo; read-out: IC50
Protocol: as §3

[11] = test system: UACC-2534 melanoma cell line; assay: Cell viability (IC50) screen, CellTiter Glo, UACC-2534; assay type: cell-based; settings: Homo sapiens; UACC-2534 cell viability, CellTiter Glo; read-out: IC50
Protocol: as §3

[12] = test system: UACC-1940 melanoma cell line; assay: Cell viability (IC50) screen, CellTiter Glo, UACC-1940; assay type: cell-based; settings: Homo sapiens; UACC-1940 cell viability, CellTiter Glo; read-out: IC50
Protocol: as §3

[13] = test system: UACC-903 melanoma cell line; assay: Cell viability (IC50) screen, CellTiter Glo, UACC-903; assay type: cell-based; settings: Homo sapiens; UACC-903 cell viability, CellTiter Glo; read-out: IC50
Protocol: as §3

COc1cc([C@@H]2c3cc4c(cc3[C@H](O)[C@H]3COC(=O)[C@H]23)OCO4)cc(OC)c1OC [Podophyllotoxin]
IC50 (L6 cells): 0.04 µg/mL (≈ 0.0965 µM)

COc1ccc2nc3cc(Cl)ccc3c(NCCCCN(C)CC3CC3)c2c1 [Example 10, N^1-(6-Chloro-2-methoxyacridin-9-yl)-N^4-(cyclopropylmethyl)-N^4-methylbutane-1,4-diamine]
increase in tumor growth inhibition in combination than Example 10 alone ([1]; in combination with PLX-4032, FIGS. 4A, 4C): 2.6-3.25%
increase in tumor growth inhibition in combination than Example 10 alone ([1]; in combination with Temozolomide, FIGS. 4B, 4D): 7-30%
tumor growth inhibition [2]: greater than 50%
tumor cell growth inhibition [3]: more than 75%

CCCS(=O)(=O)Nc1ccc(F)c(C(=O)c2c[nH]c3ncc(-c4ccc(Cl)cc4)cc23)c1F [PLX-4032, N-[3-[5-(4-chlorophenyl)-1H-pyrrolo[2,3-b]pyridine-3-carbonyl]-2,4-difluorophenyl]propane-1-sulfonamide, reference compound]
response rate [4]: 70%
pIC50 [5]: 5.38
pIC50 [6]: 5.40
phosphorylation of ERK1/2 (oncogenic BRAF signaling) ([7]; 10 nM, 100 nM, 1 μM for three hours): reduced phosphorylation
autophagy / basal autophagic flux (LC3-II) ([7]; three hours, in the presence or absence of lysosome inhibitors): not significantly altered
pIC50 [8]: 5.82
pIC50 (A375 melanoma cell line): 6.00
Relative Growth Inhibition Compound B (A375 cells; single compound at IC10): 0.19
IC10 concentration (A375 cells; treated every other day for three weeks, single agent): 0.0013 µM
pIC50 [9]: 6.22
pIC50 [10]: 6.22
pIC50 [11]: 4.71
pIC50 [12]: 5.48
pIC50 [13]: 4.16
